Measurements as given in US20050107316A1, “Agent for inhibiting development or progress of proliferative diseases and especially cancer diseases and pharmaceutical composition containing said agent” (priority 2002, published 2005).

How the values were obtained:
[1] = system: MCF-7 cells; assay type: cell-based, human
Procedure: (§1) Cancer cell lines HeLa S3 (cervix), MCF-7 (breast) and Saos-2 (osteosarcoma) were grown at 37° C. in 5% CO2 in Ham's F 12, RPMI 1640 and McCoy's 5a medium, respectively containing 10% FBS, 2 mM L-glutamine. To assay for growth inhibition, exponentially growing cells (0.3-2.5×10^4) were seeded into 24-well plates. On the following day cells were incubated with peptides at varying concentrations without serum for 3 h followed by addition of complete medium. On day 3, 6 and 8 cells were treated again and harvested on day 3, 6, 8 and 10 to determine cell numbers using a Hemacytometer. Cell viability was assessed by trypan blue staining. Each experiment was repeated at least three times.

[2] = system: HeLa S3 cells; assay: Cell cycle analysis and count of mitotic cells after peptide treatment, HeLa S3; assay type: cell-based, human
Procedure: Cell cycle analysis was performed using a Cycle TEST™ PLUS DNA reagent kit (Becton Dickinson) according to the manufacturer's instructions. Briefly, cells were washed with PBS, treated with RNase A and stained with propidium iodide (PI). The analysis was performed using a Becton Dickinson FACScan flow cytometer. Using the MODFIT LT 2.0 software (Verity Software House, Topsham, Me.) for each individual sample 30,000 cells were analyzed.
(§2) For staining cells were grown in slide flasks and treated with peptides for 24 h. Then, cells were fixed in 4% paraformaldehyde for 30 min, permeabilized in 0.2% Triton X-100 for 20 min and stained with α-tubulin (Serotec/Biozol, Eching) 1:100, polyclonal rabbit PLK1 1:100, or monoclonal α-tubulin (Sigma) 1:100. Stained cells were analyzed with a confocal laser scan microscope (CLSM) or a fluorescence microscope.

[3] = system: HeLa S3 cells; assay: DNA and tubulin staining of polo-box-treated cells; assay type: cell-based, human
Procedure: as §2

[4] = system: Saos-2 cells; assay: Growth inhibition assay with peptides, Saos-2; assay type: cell-based, human; settings: Saos-2, 5 μM
Procedure: as §1

[5] = system: primary epithelial cells (HMEC); assay: Growth inhibition with peptides, primary epithelial cells; assay type: cell-based, human
[6] = system: MCF-7 and HeLa S3 cells; assay: Annexin V apoptosis assay and DNA staining after peptide treatment; assay type: cell-based, human
Procedure: Cells were seeded into 6-well plates, allowed to attach overnight, and then treated with different peptides at a concentration of 10 μM. Cells were trypsinized after 16 h and incubated with Annexin V according to the manufacturer's recommendations (Mo Bi Tech).

[7] = system: HeLa S3 cells; assay: Growth inhibition assay with peptides, HeLa S3; assay type: cell-based, human; settings: HeLa S3, 5 μM
Procedure: as §1

[8] = system: PLK1; assay: In vitro kinase assay with PLK1 purified from Sf 9 cells; assay type: biochemical, human
Procedure: PLK1 purified from Sf 9 cells was incubated with 0.5-1 μg of PLK1-specific substrates and 2 μCi of […] for 20 min at 37° C. in kinase buffer (20 mM HEPES pH 7.4, 150 mM KCl, 10 mM MgCl2, 1 mM EGTA, 0.5 mM DTT, 5 mM NaF, 0.1 mM Na3VO4 and 100 μM ATP).

Q: With “H-WVSKWVDYSDKYGLGYQLCDRQIKIWFQNRRMKWKK-OH [Peptide P1]” as the substance, how does the “Concentration with general toxic effect” value [1] read?
A: above 20 μM

Q: What about the “Concentrations that started to inhibit proliferation” value ([1]; MCF-7) of the same substance?
A: above 1 μM

Q: What about the “Range of dose-dependent inhibition of proliferation” value ([1]; MCF-7) of the same substance?
A: 1 to 10 µM

Q: What about the “Inhibitory effect on cell proliferation” value ([1]; MCF-7, 5 μM) of the same substance?
A: most prominent in MCF-7 cells

Q: And the Growth behavior ([1]; MCF-7, 0.01 to 0.5 μM)?
A: did not affect the growth behavior

Q: What about the “Increase of mitotic cells compared to control cells” value ([2]; HeLa S3, 24 h, 5 μM) of the same substance?
A: 3-4 fold

Q: And the “Percentage of mitotic cells” value ([2]; HeLa S3, 24 h, 5 μM)?
A: 14.7%

Q: And the “Increase of cells in G2/M compared to control cells” value ([2]; HeLa S3, day 6, 5 μM)?
A: 25-35%

Q: And the Chromosomes [3]?
A: misaligned, not properly segregated and partially condensed

Q: And the “Inhibitory effect on cell proliferation” value [4]?
A: intermediate effect

Q: What about the Inhibition of proliferation [5] of the same substance?
A: to a much lower extent than MCF-7 cells

Q: What about the Apoptotic cells ([6]; 10 μM, 16 h annexin V and PI, DNA staining after 1 day) of the same substance?
A: elevated percentage of apoptotic cells

Q: And the Apoptotic peak ([6]; time of treatment)?
A: 24 h

Q: And the “Start of the inhibitory effect” value ([6]; time of treatment)?
A: 10 h

Q: And the “Inhibitory effect on cell proliferation” value [7]?
A: little inhibition

Q: And the “Inhibitory effect on phosphorylation” value ([8]; 6.25 to 25.0 μM, wild-type compared with mutated form P2)?
A: at least two fold more inhibition

Q: And the “Phosphorylation of substrates by PLK1” value ([8]; 37° C., 20 min)?
A: decreased the phosphorylation of substrates clearly

Q: What about the “Inhibitory effect on phosphorylation” value ([8]; below 1.56 μM) of the same substance?
A: still exhibited some effect
